Entries after “also recorded” stand apart in the source; their conditions may differ. Where two headings read alike, the source gives them in different places.
Assays:
[1] = test system: Ames test; test: Ames test; type: cell-based; settings: in vitro
[2] = test system: micronucleus test; test: micronucleus test; type: cell-based; settings: in vitro
[3] = biological target: hERG channels (Homo sapiens, UniProt Q12809); test: hERG channel activity; settings: in vitro
[4] = Solubility in dosing vehicles; type: physicochemical; settings: read-out: soluble at concentrations up to
Protocol: Pentilludin powder was >97.5% pure following synthesis and when reanalyzed (Certificate of Analysis, GLP) 1 ½ and 2 ½ years after synthesis. Pentilludin was soluble in 6.82% Captisol in 60:40 PEG600/water (the vehicle used for initial toxicology experiments) and in PEG600 (the vehicle used for self-administration and Good Laboratory Practices testing) at concentrations up to 100 mg/ml with gentle heating.

[5] = Plasma pentilludin levels after acute 20 mg/kg iv or po administration; type: in vivo; settings: rat
Protocol: Proteins in 50 μL plasma collected with K2EDTA as anti-coagulant were precipitated by adding 5 μL of acetonitrile with 0.5% v/v ascorbate, 200 μL of acetonitrile containing 20 ng/ml tolbutamide internal standard with 0.5% ascorbate was added, the mixture was vortexed for 1 min, centrifuged @ 4000 rpm for 15 mins and peaks in 8 μL of the supernatant were identified using an AB Sciex Triple Quad 5500 LC-MS/MS (electrospray, negative ions, Analyst 1.6.3 software) and a Waters Acquity Ultra Performance LC System with 50 × 2.1 mm Acuity UPLC Beh C18 1.7 μm column eluted for 2.5 min @ 22°C @ 0.5 ml/min with Mobile Phase A (5mM NH4OAc in water with 0.05% formic acid) and mobile phase B (acetonitrile with 0.1% formic acid) with changes in % A as follows: 60, 10, 5, and 60. Standards were quantitated at concentrations ranging from 1– 2000 ng/mL.

[6] = test system: rats trained to self-administer amphetamine iv; test: Amphetamine self-administration; type: in vivo; settings: rat
Protocol: (§1) Young adult Sprague-Dawley rats (Charles River Laboratories, Raleigh, NC, USA) were singly housed on a reverse 12:12 day night cycle and tested during their active (dark) phase in studies approved by the Duke Institutional Animal Care and Use Committee. Rats had catheters surgically implanted in their jugular veins to provide access for self-administration by IV infusion. Briefly, rats were anesthetized with i.p. injections of ketamine (Fort Dodge Animal Health, Fort Dodge, IA, USA; […]) with the addition of Dexdomitor (Pfizer, New York, NY, USA; 0.15 mg/kg) which is a sedative and analgesic agent. Before surgery, ketoprofen (5 mg/kg, s.c.) was administered to reduce post-operative pain and inflammation. A plastic SoloPort was attached intraoperatively to a polyurethane catheter and inserted into a subcutaneous interscapular pocket and sutured to underlying fascia.
(§2) The day following surgery, the rats began self-administration sessions with amphetamine (0.1 mg/kg/infusion, iv) or remifentanil (0.3 μg/kg/infusion, iv) as reinforcers. […] Each infusion was followed by a 20-sec timeout in which the house light goes on and cue light goes out. Responses were recorded but not reinforced during this interval. […] There were five sessions of training for self-administration before the onset of pentilludin drug treatment sessions. All of the animals had the same number of training sessions to provide all with equal testing history. Each infusion session lasted for one hour. Animals were tested not more than once/day between 9 AM and 4 PM.
(§3) At the end of each study catheter patency was confirmed by assessing sedation following methohexital (brevital) administration through the catheter. […] Self-administration results, differences from baseline levels, were assessed for statistical for significance with analysis of variance. To control for baseline differences in self-administration, the self-administration with pentilludin or vehicle treatment was analyzed as a difference from each animal’s self-administration on the last two sessions of baseline training. […]

[7] = test system: rats trained to self-administer remifentanil iv; test: Remifentanil self-administration; type: in vivo; settings: rat
Protocol: as §1, §2, §3

[8] = test system: rats; test: Lever pressing for self-administration of food pellets; type: in vivo; settings: rat, eight sessions of testing
[9] = test system: dogs; test: Two week oral dosing in dogs, kidney pathology; type: in vivo, dog; settings: 15 mg/kg/d po for two weeks
[10] = Metabolism in rat liver microsomes; type: in vitro ADME
[11] = Metabolism in human liver microsomes; type: in vitro ADME
[12] = Metabolism in rat plasma; type: in vitro ADME
[13] = Metabolism in human plasma; type: in vitro ADME
[14] = test system: recombinant paraoxonase; test: Interaction with recombinant paraoxonase; type: in vitro ADME; settings: initial work
[15] = biological target: receptor type protein tyrosine phosphatase D (PTPRD); parameters: method as in PMID 34863978; settings: likely irreversible; read-out: potency in inhibiting PTPRD's phosphatase; cited from earlier work
[16] = test system: receptor type protein tyrosine phosphatase S (PTPRS); parameters: method as in PMID 35636503; settings: cited from earlier work
[17] = test system: receptor type protein tyrosine phosphatase F (PTPRF); parameters: method as in PMID 35636503; settings: cited from earlier work
[18] = test system: receptor type protein tyrosine phosphatase J (PTPRJ); parameters: method as in PMID 35636503; settings: cited from earlier work
[19] = test system: nonreceptor type protein tyrosine phosphatase 1 (PTPN1/ PTP1B); parameters: method as in PMID 35636503; settings: cited from earlier work
[20] = test system: targets of the NIDA-EUROFINS assays (virtually all targets of currently marketed drugs); parameters: method as in PMID 34863978; settings: cited from earlier work
[21] = test system: mice; settings: cited from earlier work
[22] = Repeated two week daily oral administration toxicity (observational battery, weight, chemistry, hematology, histopathology); settings: rat
[23] = test system: mice; parameters: method as in PMID 30348770; settings: cited from earlier work
[24] = test system: mice; parameters: method as in PMID 30348770; settings: cited from earlier work; remark: listed apart in the source
[25] = 20 mg/kg sc prior to every other session, 20 mg/kg

hERG channels, sequence (Q12809 whole entry): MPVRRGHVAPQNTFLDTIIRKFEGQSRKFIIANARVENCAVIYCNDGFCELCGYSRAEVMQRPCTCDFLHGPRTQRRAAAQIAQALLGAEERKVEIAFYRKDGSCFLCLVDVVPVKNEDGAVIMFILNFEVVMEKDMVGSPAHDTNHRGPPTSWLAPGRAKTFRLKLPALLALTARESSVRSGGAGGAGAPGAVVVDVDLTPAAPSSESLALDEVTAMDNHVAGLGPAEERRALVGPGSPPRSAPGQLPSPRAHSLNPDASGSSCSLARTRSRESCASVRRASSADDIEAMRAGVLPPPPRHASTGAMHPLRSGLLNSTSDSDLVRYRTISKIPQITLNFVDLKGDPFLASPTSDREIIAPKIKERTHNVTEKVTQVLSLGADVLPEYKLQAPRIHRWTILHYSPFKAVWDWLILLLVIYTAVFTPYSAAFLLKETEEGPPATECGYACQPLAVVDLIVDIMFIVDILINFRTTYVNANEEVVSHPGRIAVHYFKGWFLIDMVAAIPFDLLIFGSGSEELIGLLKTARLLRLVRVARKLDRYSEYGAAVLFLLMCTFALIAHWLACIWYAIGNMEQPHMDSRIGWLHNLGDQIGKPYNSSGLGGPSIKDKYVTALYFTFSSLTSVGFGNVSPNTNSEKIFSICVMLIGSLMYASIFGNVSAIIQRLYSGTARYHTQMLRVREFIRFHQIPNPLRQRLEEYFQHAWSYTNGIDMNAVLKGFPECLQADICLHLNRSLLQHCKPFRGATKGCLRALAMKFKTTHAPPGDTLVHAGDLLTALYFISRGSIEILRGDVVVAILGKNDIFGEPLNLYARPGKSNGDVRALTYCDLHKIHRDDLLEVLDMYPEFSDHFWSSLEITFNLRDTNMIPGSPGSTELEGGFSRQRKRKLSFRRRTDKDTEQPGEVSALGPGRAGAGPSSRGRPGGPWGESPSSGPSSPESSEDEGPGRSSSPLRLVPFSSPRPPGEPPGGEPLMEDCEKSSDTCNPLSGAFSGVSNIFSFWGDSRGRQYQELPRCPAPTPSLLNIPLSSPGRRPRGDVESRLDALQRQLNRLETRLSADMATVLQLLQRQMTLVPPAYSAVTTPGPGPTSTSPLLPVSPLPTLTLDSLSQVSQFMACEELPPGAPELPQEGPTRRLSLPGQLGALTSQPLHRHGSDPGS

COc1c(OCC2CCCC2)cc2c(c1C=O)CC(O)OC2=O (stereo not drawn) [Pentilludin]
activity in Ames test [1]: no in vitro activities | activity in micronucleus test [2]: no in vitro activities | activity at hERG channels [3]: no in vitro activities | solubility ([4]; 6.82% Captisol in 60:40 PEG600/water (dosing vehicle), 6.82% Captisol in 60:40 PEG600/water, gentle heating): ≤ 100 mg/mL | solubility ([4]; PEG600 (dosing vehicle), PEG600, gentle heating): ≤ 100 mg/mL | bioavailability ([5]; plasma, po, 20 mg/kg, data from 0.5 to 4h, read-out: bioavailability for po pentilludin in PEG600): 15% | concentration at 0.08 h ([5]; plasma, IV 20.0 mg/kg, 0.08 h): 62200 ng/mL | concentration at 0.5 h ([5]; plasma, IV 20.0 mg/kg, 0.50 h): 2920 ng/mL | concentration at 4 h ([5]; plasma, IV 20.0 mg/kg, 4.0 h): 4.98 ng/mL | concentration at 0.5 h ([5]; plasma, PO 20.0 mg/kg in PEG600, 0.50 h): 449 ng/mL | concentration at 2 h ([5]; plasma, PO 20.0 mg/kg in PEG600, 2.0 h): 146 ng/mL | concentration at 4 h ([5]; plasma, PO 20.0 mg/kg in PEG600, 4.0 h): 17.1 ng/mL | terminal half-life of plasma pentilludin ([5]; 20 mg/kg): between one and two | signs of gross toxicity ([5]; acute 20 mg/kg): no signs of gross toxicity | reduction of amphetamine self-administration overall relative to controls ([6]; 20 mg/kg sc prior to every other session, 12 sessions): 6.2 infusions per session | effect on amphetamine self-administration [6, 25]: substantially reduces; also recorded: robustly reduced | decrease of amphetamine self-administration from last acquisition sessions ([6]; 20 mg/kg sc, last two of 12 sessions): 23% | effect on remifentanil self-administration [7, 25]: more modestly reduces; also recorded: significantly attenuated the increase | smaller increase in remifentanil self-administration relative to vehicle-treated controls ([7]; 20 mg/kg sc, 11th and 12th sessions): 26.5% | responding on the control lever ([7]; remifentanil self-administration): did not differ | food pellets per one-hour session [8]: 85.6 ± 6.3 food pellets | kidney pathology [9]: fail to display any kidney pathology | metabolism [10]: only modest metabolism | metabolism [11]: only modest metabolism | metabolism [12]: robust metabolism | metabolism [13]: robust metabolism | interaction with recombinant paraoxonase [14]: interacts avidly | IC50 [15]: 690 nM | potency at PTPRS [16]: some potency | potency at PTPRF [17]: some potency | potency at PTPRJ [18]: less potency | potency at PTPN1/ PTP1B [19]: less potency | IC50 [20]: ≥ 100000 nM | activity at targets for currently-licensed drugs ([20]; in vitro): no in vitro activities | oral intake and weight ([21]; daily ≥ 150 mg/kg po): reduce oral intake and lose weight starting on about the 4th day | toxicity on weeks-long repeated treatments ([21]; pentilludin doses up to 100 mg/kg/d po): little evidence for toxicity | weight loss ([21]; repeated doses of 100 mg/kg/day): no weight loss | serum chemistry abnormalities in measures relating to renal function ([22]; 150 mg/kg/d): no serum chemistry abnormalities | proteinuria ([22]; 150 mg/kg/d po two weeks, 150 mg/kg/day): proteinuria in rats treated with 150 mg/kg/d that recovered within two weeks of the end of pentilludin administration; also recorded: modest and reversible proteinuria | effects on the observational battery, weight, plasma chemistries or hematological assessments ([22]; 50 or 75 mg/kg po daily in PEG600, two weeks): no significant effects | kidney histopathology ([22]; daily doses for two weeks, also found with vehicle): basophilic lesions in the kidneys of a number of the rats | alterations in serum chemistries related to renal function ([22]; doses up to 100 mg/kg/d): None of the rats treated with doses up to 100 mg/kg/d displayed alterations | behavioral, hematologic or serum chemistry abnormalities ([22]; doses up to 100 mg/kg/day for two weeks): have not been found to display behavioral, hematologic or serum chemistry abnormalities | effects on histopathology ([22]; good laboratory practices toxicology study, 50 or 75 mg/kg/d po two weeks): no pentilludin-associated effects detected | effect on plasma chemistry, hematology and behavioral observation batteries ([22]; good laboratory practices work): lack of effect

CCCCOc1cc2c(c(C=O)c1OC)CC(O)OC2=O (stereo not drawn) [7-BIA]
stimulant reward, cocaine conditioned place preference [23]: reduces stimulant reward | stimulant reward, cocaine self-administration [24]: reduces stimulant reward | toxicity on weeks-long repeated treatments [21]: little evidence for toxicity

Reference: publication doi:10.1101/2025.07.28.667221, “Pentilludin reduces rat amphetamine and remifentail self-administration with good pharmacologic and toxicologic profiles” (bioRxiv, 2025)
